From the supplement of paper PMC10307832

Tests used:
Test in all cases: relative viability (nuclei count vs DMSO), 5 days (fraction); higher = more cells survive
[1] = tested on: NCI-H1437
Procedure, shortened: (§1)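 Dosing by pin tool came one day after lung cancer cell lines were seeded in 1536-well plates, using either one drug or a fixed anchor-drug dose plus five library-drug doses (not always all listed) in √10 steps. After 5 days, nuclei were counted on 4× images. Relative viability is treated-well nuclei count divided by vehicle-well nuclei count, and values are medians of duplicate plates.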

[2] = tested on: HCC-827
Procedure, shortened: as §1

[3] = tested on: NCI-H647
Procedure, shortened: as §1

[4] = tested on: NCI-H1355
Procedure, shortened: as §1

[5] = tested on: SK-LU-1
Procedure, shortened: as §1

[6] = tested on: NCI-H2405
Procedure, shortened: as §1

[7] = tested on: NCI-H2342
Procedure, shortened: as §1

[8] = tested on: NCI-H661
Procedure, shortened: as §1

[9] = tested on: EKVX
Procedure, shortened: as §1

[10] = tested on: NCI-H1734
Procedure, shortened: as §1

[11] = tested on: NCI-H2170
Procedure, shortened: as §1

[12] = tested on: NCI-H596
Procedure, shortened: as §1

[13] = tested on: HCC-366
Procedure, shortened: as §1

[14] = tested on: LOU-NH91
Procedure, shortened: as §1

[15] = tested on: SK-MES-1
Procedure, shortened: as §1

[16] = tested on: HARA
Procedure, shortened: as §1

[17] = tested on: NCI-H2228
Procedure, shortened: as §1

[18] = tested on: NCI-H1395
Procedure, shortened: as §1

[19] = tested on: LC-2-ad
Procedure, shortened: as §1

[20] = tested on: NCI-H2087
Procedure, shortened: as §1

[21] = tested on: NCI-H2009
Procedure, shortened: as §1

[22] = tested on: NCI-H1792
Procedure, shortened: as §1

[23] = tested on: BEN
Procedure, shortened: as §1

## NC(=O)Nc1cc(-c2cccc(F)c2)sc1C(=O)N[C@H]1CCCNC1 [AZD7762] + N=C(N)NC(=N)NCCc1ccccc1 [Phenformin] (partner 250 µM)
[1]; first compound 0.01 µM
  relative viability: 0.304
[1]; first compound 0.03162 µM
  relative viability: 0.225
[1]; first compound 0.1 µM
  relative viability: 0.328
[1]; first compound 0.3162 µM
  relative viability: 0.343
[1]; first compound 1 µM
  relative viability: 0.279
[2]; first compound 0.01 µM
  relative viability: 0.406
[2]; first compound 0.03162 µM
  relative viability: 0.422
[2]; first compound 0.1 µM
  relative viability: 0.442
[2]; first compound 0.3162 µM
  relative viability: 0.435
[2]; first compound 1 µM
  relative viability: 0.249
[3]; first compound 0.01 µM
  relative viability: 0.495
[3]; first compound 0.03162 µM
  relative viability: 0.445
[3]; first compound 0.1 µM
  relative viability: 0.494
[3]; first compound 0.3162 µM
  relative viability: 0.315
[3]; first compound 1 µM
  relative viability: 0.106
[4]; first compound 0.01 µM
  relative viability: 0.403
[4]; first compound 0.03162 µM
  relative viability: 0.501
[4]; first compound 0.1 µM
  relative viability: 0.456
[4]; first compound 0.3162 µM
  relative viability: 0.49
[4]; first compound 1 µM
  relative viability: 0.444
[5]; first compound 0.01 µM
  relative viability: 0.563
[5]; first compound 0.03162 µM
  relative viability: 0.494
[5]; first compound 0.1 µM
  relative viability: 0.17
[5]; first compound 0.3162 µM
  relative viability: 0.139
[5]; first compound 1 µM
  relative viability: 0.131
[6]; first compound 0.01 µM
  relative viability: 0.4
[6]; first compound 0.03162 µM
  relative viability: 0.452
[6]; first compound 0.1 µM
  relative viability: 0.402
[6]; first compound 0.3162 µM
  relative viability: 0.425
[6]; first compound 1 µM
  relative viability: 0.242
[7]; first compound 0.01 µM
  relative viability: 0.597
[7]; first compound 0.03162 µM
  relative viability: 0.605
[7]; first compound 0.1 µM
  relative viability: 0.72
[7]; first compound 0.3162 µM
  relative viability: 0.567
[7]; first compound 1 µM
  relative viability: 0.56
[8]; first compound 0.01 µM
  relative viability: 0.272
[8]; first compound 0.03162 µM
  relative viability: 0.269
[8]; first compound 0.1 µM
  relative viability: 0.232
[8]; first compound 0.3162 µM
  relative viability: 0.265
[8]; first compound 1 µM
  relative viability: 0.262
[9]; first compound 0.01 µM
  relative viability: 0.194
[9]; first compound 0.03162 µM
  relative viability: 0.244
[9]; first compound 0.1 µM
  relative viability: 0.245
[9]; first compound 0.3162 µM
  relative viability: 0.229
[9]; first compound 1 µM
  relative viability: 0.206
[10]; first compound 0.01 µM
  relative viability: 0.44
[10]; first compound 0.03162 µM
  relative viability: 0.44
[10]; first compound 0.1 µM
  relative viability: 0.398
[10]; first compound 0.3162 µM
  relative viability: 0.33
[10]; first compound 1 µM
  relative viability: 0.211
[11]; first compound 0.01 µM
  relative viability: 0.411
[11]; first compound 0.03162 µM
  relative viability: 0.41
[11]; first compound 0.1 µM
  relative viability: 0.471
[11]; first compound 0.3162 µM
  relative viability: 0.384
[11]; first compound 1 µM
  relative viability: 0.423
[12]; first compound 0.01 µM
  relative viability: 0.701
[12]; first compound 0.03162 µM
  relative viability: 0.836
[12]; first compound 0.1 µM
  relative viability: 0.641
[12]; first compound 0.3162 µM
  relative viability: 0.809
[12]; first compound 1 µM
  relative viability: 0.673
[13]; first compound 0.01 µM
  relative viability: 0.601
[13]; first compound 0.03162 µM
  relative viability: 0.615
[13]; first compound 0.1 µM
  relative viability: 0.627
[13]; first compound 0.3162 µM
  relative viability: 0.485
[13]; first compound 1 µM
  relative viability: 0.312
[14]; first compound 0.01 µM
  relative viability: 0.783
[14]; first compound 0.03162 µM
  relative viability: 0.76
[14]; first compound 0.1 µM
  relative viability: 0.717
[14]; first compound 0.3162 µM
  relative viability: 0.772
[14]; first compound 1 µM
  relative viability: 0.525
[15]; first compound 0.01 µM
  relative viability: 0.699
[15]; first compound 0.03162 µM
  relative viability: 0.663
[15]; first compound 0.1 µM
  relative viability: 0.709
[15]; first compound 0.3162 µM
  relative viability: 0.501
[15]; first compound 1 µM
  relative viability: 0.158
[16]; first compound 0.01 µM
  relative viability: 0.569
[16]; first compound 0.03162 µM
  relative viability: 0.509
[16]; first compound 0.1 µM
  relative viability: 0.501
[16]; first compound 0.3162 µM
  relative viability: 0.282
[16]; first compound 1 µM
  relative viability: 0.138
[17]; first compound 0.01 µM
  relative viability: 0.305
[17]; first compound 0.03162 µM
  relative viability: 0.348
[17]; first compound 0.1 µM
  relative viability: 0.223
[17]; first compound 0.3162 µM
  relative viability: 0.152
[17]; first compound 1 µM
  relative viability: 0.13
[18]; first compound 0.01 µM
  relative viability: 0.471
[18]; first compound 0.03162 µM
  relative viability: 0.47
[18]; first compound 0.1 µM
  relative viability: 0.491
[18]; first compound 0.3162 µM
  relative viability: 0.434
[18]; first compound 1 µM
  relative viability: 0.381
[19]; first compound 0.01 µM
  relative viability: 0.645
[19]; first compound 0.03162 µM
  relative viability: 0.595
[19]; first compound 0.1 µM
  relative viability: 0.555
[19]; first compound 0.3162 µM
  relative viability: 0.592
[19]; first compound 1 µM
  relative viability: 0.342
[20]; first compound 0.01 µM
  relative viability: 0.434
[20]; first compound 0.03162 µM
  relative viability: 0.513
[20]; first compound 0.1 µM
  relative viability: 0.566
[20]; first compound 0.3162 µM
  relative viability: 0.553
[20]; first compound 1 µM
  relative viability: 0.554
[21]; first compound 0.01 µM
  relative viability: 0.496
[21]; first compound 0.03162 µM
  relative viability: 0.535
[21]; first compound 0.1 µM
  relative viability: 0.535
[21]; first compound 0.3162 µM
  relative viability: 0.543
[21]; first compound 1 µM
  relative viability: 0.439
[22]; first compound 0.01 µM
  relative viability: 0.412
[22]; first compound 0.03162 µM
  relative viability: 0.26
[22]; first compound 0.1 µM
  relative viability: 0.442
[22]; first compound 0.3162 µM
  relative viability: 0.736
[22]; first compound 1 µM
  relative viability: 0.258
[23]; first compound 0.01 µM
  relative viability: 0.316
[23]; first compound 0.03162 µM
  relative viability: 0.271
[23]; first compound 0.1 µM
  relative viability: 0.222
[23]; first compound 0.3162 µM
  relative viability: 0.266
[23]; first compound 1 µM
  relative viability: 0.245
